Measurements reported in patent US7595401B2, “Therapeutic compounds and their use in cancer” (Myriad Pharmaceuticals, Inc., priority 2006, dated 2009).

test system: purified human Hsp90; experiment: Binding Assay: fluorescence polarization with BODIPY-labeled geldanamycin; settings: 5 μM compound, BODIPY-GM 10 nM, Hsp90 30 nM
Summary of the method: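 Compounds in 2% DMSO final compete with 10 nM BODIPY-GM for 30 nM purified human Hsp90, incubated overnight at room temperature in pH 7.3 HEPES buffer containing Na2MoO4 and DTT. Polarization (mP, ex/em 485/530) normalized to DMSO gives percent inhibition; autofluorescence-confounded data excluded.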

In order of rising “% Inhibition at 5 μM Compound Concentration” value:
1. CCOc1ccc(OCC)c(Sc2nc3c(N)ncn(CCc4ccccc4Cl)c-3n2)c1 [Example 192, 3-[2-(2-chloro-phenyl)-ethyl]-8-(2,5-diethoxy-phenylsulfanyl)-3H-purin-6-ylamine]  0%
2. Nc1ncn(CCC2CCN(C(=O)OCc3ccccc3)CC2)c2nc(Sc3cc4c(cc3Br)OCO4)nc1-2 [Example 410, Benzyl 4-(2-{6-amino-8-[(6-bromo-1,3-benzodioxol-5-yl)thio]-3H-purin-3-yl}ethyl)piperidine-1-carboxylate]  11%
3. Cc1ccsc1Sc1nc2c(N)ncn(CCC3CCN(C=O)CC3)c-2n1 [Example 547, 4-(2-{6-Amino-8-[(3-methyl-2-thienyl)thio]-3 H-purin-3-yl}ethyl)piperidine-1-carbaldehyde]  12.00%
4. Nc1ncn(CCC2CCOCC2)c2nc(Sc3cc4c(cc3Br)OCO4)nc1-2 [Example 350, 8-[(6-Bromo-1,3-benzodioxol-5-yl)thio]-3-[2-(tetrahydro-2H-pyran-4-yl)ethyl]-3H-purin-6-amine]  25%
5. Nc1ncn(CCc2ccccc2F)c2nc(Sc3cc4c(cc3Br)OCO4)nc1-2 [Example 148, 8-(6-bromo-benzo[1,3]dioxol-5-ylsulfanyl)-3-[2-(2-fluoro-phenyl)-ethyl]-3H-purin-6-ylamine]  35%
6. COc1ccc(OC)c(Sc2nc3c(N)ncnc3n2CCC2CCCCC2)c1 [Example 169, 9-(2-Cyclohexyl-ethyl)-8-(2,5-dimethoxyphenyl-sulfanyl)-9H-purin-6-ylamine]  37%
7. CC(C)NC(=O)N1CCCC(CCn2cnc(N)c3nc(Sc4cc5c(cc4Br)OCO5)nc2-3)C1 (centres unmarked) [Example 441, 3-(2-{6-Amino-8-[(6-bromo-1,3-benzodioxol-5-yl)thio]-3H-purin-3-yl}ethyl)-N-isopropylpiperidine-1-carboxamide]  45%
8. Nc1ncnc2c1nc(Sc1ccc3c(c1)OCO3)n2CCn1cccc1 [Example 49, 8-(Benzo[1,3]dioxol-5-ylsulfanyl)-9-(2-pyrrol-1-yl-ethyl)-9H-purin-6-ylamine]  55%
9. CCCNC(=N)N1CCC(CCn2cnc(N)c3nc(Sc4cc5c(cc4Br)OCO5)nc2-3)CC1 [Example 619, 4-(2-{6-Amino-8-[(6-bromo-1,3-benzodioxol-5-yl)thio]-3 H-purin-3-yl}ethyl)-N-propylpiperidine-1-carboximidamide]  76.00%

same assay, conditions: BODIPY-GM 10 nM, Hsp90 30 nM

Going from `Nc1ncnc2c1nc(Sc1cc3c(cc1Br)OCO3)n2CCC1CCN(Cc2ccc(Cl)cc2)CC1` [Example 573, 8-[(6-Bromo-1,3-benzodioxol-5-yl)thio]-9-{2-[1-(4-chlorobenzyl)piperidin-4-yl]ethyl}-9 H-purin-6-amine] to `COc1ccc(CN2CCC(CCn3c(Sc4cc5c(cc4Br)OCO5)nc4c(N)ncnc43)CC2)cc1` [Example 594, 8-[(6-Bromo-1,3-benzodioxol-5-yl)thio]-9-{2-[1-(4-methoxybenzyl)piperidin-4-yl]ethyl}-9 H-purin-6-amine], the IC50 falls from 1400 nM to 270 nM (5.2-fold).

First: COc1ccc(OC)c(Sc2nc3c(N)ncnc3n2CCc2ccccc2Cl)c1 [Example 25, 9-[2-(2-Chloro-phenyl)-ethyl]-8-(2,5-dimethoxy-phenylsulfanyl)-9H-purin-6-ylamine]
Second: CCC(C)C(Cn1c(Sc2cc(OC)ccc2OC)nc2c(N)ncnc21)c1ccccc1 (centres unmarked) [Example 105, 8-(2,5-Dimethoxy-phenylsulfanyl)-9-(3-methyl-2-phenyl-pentyl)-9H-purin-6-ylamine]
The IC50 of the first is lower: 41 nM for the first, over 1000 nM for the second. The first is the more potent here.

First: COc1ccc(OC)c(Sc2nc3c(N)ncnc3n2CCC2CCCCC2)c1 [Example 169, 9-(2-Cyclohexyl-ethyl)-8-(2,5-dimethoxyphenyl-sulfanyl)-9H-purin-6-ylamine]
Second: COc1ccc(OC)c(Sc2nc3c(N)ncnc3n2CCC2CCOCC2)c1 [Example 348, 8-[(2,5-Dimethoxyphenyl)thio]-9-[2-(tetrahydro-2H-pyran-4-yl)ethyl]-9H-purin-6-amine]
The IC50 of the first is 1.7-fold lower: 470 nM for the first, 800 nM for the second. The first is the more potent here.

`Nc1ncnc2c1nc(Sc1cc3c(cc1Br)OCO3)n2CCC1CCN(Cc2ccccc2)CC1` [Example 599, 9-[2-(1-Benzylpiperidin-4-yl)ethyl]-8-[(6-bromo-1,3-benzodioxol-5-yl)thio]-9 H-purin-6-amine] and `Nc1ncnc2c1nc(Sc1cc3c(cc1Br)OCO3)n2CC[C@H]1CCCN(C=O)C1` [Example 604, (3R)-3-(2-{6-Amino-8-[(6-bromo-1,3-benzodioxol-5-yl)thio]-9 H-purin-9-yl}ethyl)piperidine-1-carbaldehyde] are within 1.5-fold of each other in IC50: 260 nM for the first, 190 nM for the second.

First: Nc1ncnc2c1nc(Sc1cc3c(cc1Br)OCO3)n2CCC1CCCN(CC(F)(F)F)C1 (centres unmarked) [Example 577, 8-[(6-Bromo-1,3-benzodioxol-5-yl)thio]-9-{2-[1-(2,2,2-trifluoroethyl)piperidin-3-yl]ethyl}-9 H-purin-6-amine]
Second: Nc1ncnc2c1nc(Sc1cc3c(cc1Br)OCO3)n2CCC1CCCCN1CC(=O)O (centres unmarked) [Example 650, [2-(2-{6-amino-8-[(6-bromo-1,3-benzodioxol-5-yl)thio]-9H-purin-9-yl}ethyl)piperidin-1-yl]acetic acid]
The IC50 of the first is lower: 140 nM for the first, over 2000 nM for the second. The first is the more potent here.

Going from `COC(=O)[C@H](CCSC)NC(=O)N1CCC(CCn2c(Sc3cc4c(cc3Br)OCO4)nc3c(N)ncnc32)CC1` [Example 505, Methyl N-{[4-(2-{6-amino-8-[(6-bromo-1,3-benzodioxol-5-yl)thio]-9 H-purin-9-yl}ethyl)piperidin-1-yl]carbonyl}-L-methioninate] to `Nc1ncnc2c1nc(Sc1cc3c(cc1Br)OCO3)n2CCC1CCN(C(=O)NCCCC(=O)O)CC1` [Example 502, 4-({[4-(2-{6-Amino-8-[(6-bromo-1,3-benzodioxol-5-yl)thio]-9 H-purin-9-yl}ethyl)piperidin-1-yl]carbonyl}amino)butanoic acid], the IC50 rises from 85 nM to 140 nM (1.6-fold). The first is the more potent here.

Compared with `COc1ccc(OC)c(Sc2nc3c(N)ncnc3n2CCC2CCCCN2S(C)(=O)=O)c1` (centres unmarked) [Example 371, 8-[(2,5-Dimethoxyphenyl)thio]-9-{2-[1-(methylsulfonyl)piperidin-2-yl]ethyl}-9H-purin-6-amine], `COc1cc(Br)c(Sc2nc3c(N)ncnc3n2CCC2CCN(C(C)=O)CC2)cc1OC` [Example 565, 9-[2-(1-Acetylpiperidin-4-yl)ethyl]-8-[(2-bromo-4,5-dimethoxyphenyl)thio]-9 H-purin-6-] is higher in IC50: 700 nM for the first, over 5000 nM for the second.

Going from `C=Cn1c(S(=O)(=O)c2cc(OC)ccc2OC)nc2c(N)ncnc21` [Example 486, 8-(2,5-dimethoxy-phenylsulfonyl)-9-vinyl-9H -purin-6-ylamine] to `COc1cc(Sc2nc3c(N)ncnc3n2CCc2c(F)cccc2Cl)c(OC)cc1Cl` [Example 256, 8-[(4-Chloro-2,5-dimethoxyphenyl)thio]-9-[2-(2-chloro-6-fluorophenyl)ethyl]-9H-purin-6-amine], the IC50 falls from 7000 nM to 470 nM (15-fold).

Compared with `C[C@H](NC(=O)OC(C)(C)C)C(=O)N1CCC(CCn2c(Br)nc3c(N)ncnc32)CC1` [Example 772, tert-Butyl ((1S)-2-{4-[2-(6-amino-8-bromo-9H-purin-9-yl)ethyl]piperidin-1-yl}-1-methyl-2-oxoethyl)carbamate], `CC(C)(C)OC(=O)NC(C)(C)C(=O)N1CCC(CCn2c(Sc3cc4c(cc3Br)OCO4)nc3c(N)ncnc32)CC1` [Example 711] is lower in IC50: over 5000 nM for the first, 600 nM for the second.

Going from `Cc1ccccc1CCn1c(Sc2cc3c(cc2Br)OCO3)nc2c(N)ncnc21` [Example 155, 8-(6-Bromo-benzo[1,3]dioxol-5-ylsulfanyl)-9-(2-o-tolyl-ethyl)-9H-purin-6-ylamine] to `Nc1ccccc1CCn1c(Sc2cc3c(cc2Br)OCO3)nc2c(N)ncnc21` [Example 282, 9-[2-(2-Aminophenyl)ethyl]-8-[(6-bromo-1,3-benzodioxol-5-yl)thio]-9H-purin-6-amine], the IC50 falls from 95 nM to 55 nM (1.7-fold).

`COc1ccc(OC)c(Sc2nc3c(N)nc(F)nc3n2CCc2ccccc2)c1` [Example 230, 8-[(2,5-Dimethoxyphenyl)thio]-2-fluoro-9-(2-phenylethyl)-9H-purin-6-amine] and `COc1cc(Sc2nc3c(N)ncnc3n2CCc2c(Cl)cccc2Cl)c(OC)cc1Cl` [Example 255, 8-[(4-Chloro-2,5-dimethoxyphenyl)thio]-9-[2-(2,6-dichlorophenyl)ethyl]-9H-purin-6-amine] are within 1.5-fold of each other in IC50: 210 nM for the first, 250 nM for the second.

Compared with `Nc1ncnc2c1nc(Sc1cc3c(cc1Br)OCO3)n2CCC1CCN(C(=O)[C@@H]2CCCN2)CC1` [Example 753, 8-[(6-Bromo-1,3-benzodioxol-5-yl)thio]-9-[2-(1-L-prolyl-piperidin-4-yl)ethyl]-9H-purin-6-amine], `COC(=O)CCCNC(=O)N1CCCC(CCn2c(Sc3cc4c(cc3Br)OCO4)nc3c(N)ncnc32)C1` (centres unmarked) [Example 503, Methyl 4-({[3-(2-{6-amino-8-[(6-bromo-1,3-benzodioxol-5-yl)thio]-9 H-purin-9-yl}ethyl)piperidin-1-yl]carbonyl}amino)butanoate] is 3.2-fold higher in IC50: 59 nM for the first, 190 nM for the second. The first is the more potent here.

Going from `Nc1ncnc2c1nc(Sc1cc3c(cc1Br)OCO3)n2CCC(N)C1CCOCC1` (centres unmarked) [Example 692, 9-[3-Amino-3-(tetrahydro-pyran-4-yl)-propyl]-8-(6-bromo-benzo[1,3]dioxol-5-ylsulfanyl)-9H-purin-6-ylamine] to `Cc1cc(=O)n(CCn2c(Sc3cc4c(cc3Br)OCO4)nc3c(N)ncnc32)c(=O)[nH]1` [Example 578, 3-(2-{6-amino-8-[(6-bromo-1,3-benzodioxol-5-yl)thio]-9 H-purin-9-yl}ethyl)-6-methylpyrimidine-2,4 (1 H,3 H)-dione], the IC50 falls from 2000 nM to 550 nM (3.6-fold). The second is the more potent here.

`COc1cc(Sc2nc3c(N)ncn(CCCc4ccccc4)c-3n2)cc(OC)c1OC` [Example 48, 3-(3-phenyl-propyl)-8-(3,4,5-trimethoxy-phenylsulfanyl)-3H-purin-6-ylamine] and `Nc1ncn(CCc2ccc(Cl)cc2F)c2nc(Sc3cc4c(cc3Br)OCO4)nc1-2` [Example 40, 8-(6-bromo-benzo[1,3]dioxol-5-ylsulfanyl)-3-[2-(4-chloro-2-fluoro-phenyl)-ethyl]-3H-purin-6-ylamine] cannot be ordered by IC50: over 10000 nM for the first, over 10000 nM for the second.

In the case of `Nc1ncnc2c1nc(Sc1ccc3c(c1)OCO3)n2CCn1cccc1` [Example 49, 8-(Benzo[1,3]dioxol-5-ylsulfanyl)-9-(2-pyrrol-1-yl-ethyl)-9H-purin-6-ylamine], the IC50 is reported as 1200 nM.
